The target in series [1] is T1, Solute carrier organic anion transporter family member 1A1 (Rattus norvegicus, UniProt P46720).
T1 sequence (P46720 whole entry): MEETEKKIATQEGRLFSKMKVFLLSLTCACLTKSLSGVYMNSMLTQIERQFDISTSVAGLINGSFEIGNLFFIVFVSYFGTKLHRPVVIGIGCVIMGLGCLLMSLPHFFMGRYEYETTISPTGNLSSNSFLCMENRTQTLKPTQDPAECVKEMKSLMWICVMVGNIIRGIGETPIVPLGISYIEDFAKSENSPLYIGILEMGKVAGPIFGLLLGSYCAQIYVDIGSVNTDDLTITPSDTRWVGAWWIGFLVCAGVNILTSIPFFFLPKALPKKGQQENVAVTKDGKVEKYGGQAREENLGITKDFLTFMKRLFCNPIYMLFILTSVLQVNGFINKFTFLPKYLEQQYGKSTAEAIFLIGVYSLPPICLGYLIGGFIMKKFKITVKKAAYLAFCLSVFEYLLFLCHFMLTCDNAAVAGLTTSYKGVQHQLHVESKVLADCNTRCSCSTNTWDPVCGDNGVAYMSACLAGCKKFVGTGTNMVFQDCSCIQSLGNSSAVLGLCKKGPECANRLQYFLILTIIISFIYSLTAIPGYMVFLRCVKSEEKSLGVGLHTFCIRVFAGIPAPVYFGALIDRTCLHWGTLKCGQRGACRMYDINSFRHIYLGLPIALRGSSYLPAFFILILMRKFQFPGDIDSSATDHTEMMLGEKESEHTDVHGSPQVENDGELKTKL
The series can be described thus: TP_TRANSPORTER: inhibition of Ouabain uptake (Ouabain: 100 uM, Estrone-3-glucuronide: 100 uM) in Xenopus laevis oocytes. Type of series: functional, cell-based, Oocyte. More on the design: scale not given: the % may be the effect or the level left. Particulars: probe Ouabain (100 uM), read-out: Activity.

Series [2] has as its target T1, Solute carrier organic anion transporter family member 1A1. As to the kind of experiment: TP_TRANSPORTER: inhibition of Ouabain uptake (Ouabain: 100 uM, Estradiol-3-glucuronide: 100 uM) in Xenopus laevis oocytes. Type of series: functional, cell-based, Oocyte. On the set-up: scale not given: the % may be the effect or the level left. The conditions noted are these: probe Ouabain (100 uM), read-out: Activity.

Series [3] has the same target. As to the kind of experiment: TP_TRANSPORTER: inhibition of Ouabain uptake (Ouabain: 100 uM, Aldosterone: 100 uM) in Xenopus laevis oocytes. More on the design: scale not given: the % may be the effect or the level left. The conditions noted are these: oocyte. Type of series: functional, cell-based.
Series [4] has the same target. The series can be described thus: TP_TRANSPORTER: inhibition of Ouabain uptake (Ouabain: 100 uM, Corticosterone: 100 uM) in Xenopus laevis oocytes. Type of series: functional, cell-based. On the set-up: scale not given: the % may be the effect or the level left. Particulars: oocyte.
For series [5] the target is unchanged. As to the kind of experiment: TP_TRANSPORTER: inhibition of Ouabain uptake (Ouabain: 100 uM, Dexamethasone: 100 uM) in Xenopus laevis oocytes. Type of series: functional, cell-based, Oocyte. The conditions noted are these: probe Ouabain (100 uM), read-out: Activity. More on the design: scale not given: the % may be the effect or the level left.
Series [6] has the same target. As to the kind of experiment: (§1) TP_TRANSPORTER: uptake in Xenopus laevis oocytes. Type of series: functional, cell-based, Oocyte.
For series [7] the target is unchanged. The series can be described thus: TP_TRANSPORTER: inhibition of Ouabain uptake (Ouabain: 100 uM, Digitoxin: 100 uM) in Xenopus laevis oocytes. Type of series: functional, cell-based, Oocyte. More on the design: scale not given: the % may be the effect or the level left. The conditions noted are these: probe Ouabain (100 uM), read-out: Activity.
The target is the same in series [8]. The series can be described thus: TP_TRANSPORTER: inhibition of Ouabain uptake (Ouabain: 100 uM, Digoxigenin: 100 uM) in Xenopus laevis oocytes. Type of series: functional, cell-based, Oocyte. On the set-up: scale not given: the % may be the effect or the level left. The conditions noted are these: probe Ouabain (100 uM), read-out: Activity.
Series [9] shares this target. The series can be described thus: TP_TRANSPORTER: inhibition of Ouabain uptake (Ouabain: 100 uM, E217betaG: 100 uM) in Xenopus laevis oocytes. The series is classed as functional, cell-based, Oocyte. On the set-up: scale not given: the % may be the effect or the level left. Particulars: probe Ouabain (100 uM), read-out: Activity.
Series [10] has the same target. The series can be described thus: TP_TRANSPORTER: inhibition of Ouabain uptake (Ouabain: 100 uM, beta-Estradiol: 100 uM) in Xenopus laevis oocytes. Type of series: functional, cell-based, Oocyte. On the set-up: scale not given: the % may be the effect or the level left. The conditions noted are these: probe Ouabain (100 uM), read-out: Activity.
For series [11] the target is unchanged. As to the kind of experiment: TP_TRANSPORTER: inhibition of Ouabain uptake (Ouabain: 100 uM, E1S: 100 uM) in Xenopus laevis oocytes. Type of series: functional, cell-based. More on the design: scale not given: the % may be the effect or the level left. The conditions noted are these: oocyte.
The target is the same in series [12]. The series can be described thus: TP_TRANSPORTER: inhibition of Ouabain uptake (Ouabain: 100 uM, Cortisol: 100 uM) in Xenopus laevis oocytes. On the set-up: scale not given: the % may be the effect or the level left. Particulars: probe Ouabain (100 uM), read-out: Activity. The series is classed as functional, cell-based, Oocyte.
Series [13] shares this target. As to the kind of experiment: TP_TRANSPORTER: inhibition of Ouabain uptake (Ouabain: 100 uM, ICG: 100 uM) in Xenopus laevis oocytes. Type of series: functional, cell-based. On the set-up: scale not given: the % may be the effect or the level left. Particulars: oocyte.
The target is the same in series [14]. As to the kind of experiment: TP_TRANSPORTER: inhibition of Ouabain uptake (Ouabain: 100 uM, Prednisolone: 100 uM) in Xenopus laevis oocytes. Type of series: functional, cell-based, Oocyte. More on the design: scale not given: the % may be the effect or the level left. The conditions noted are these: probe Ouabain (100 uM), read-out: Activity.
Series [15] shares this target. The series can be described thus: TP_TRANSPORTER: inhibition of Ouabain uptake (Ouabain: 100 uM, Prednisone: 100 uM) in Xenopus laevis oocytes. On the set-up: scale not given: the % may be the effect or the level left. Particulars: oocyte. Type of series: functional, cell-based.
For series [16] the target is unchanged. The series can be described thus: TP_TRANSPORTER: inhibition of Ouabain uptake (Ouabain: 100 uM, Rose bengal: 100 uM) in Xenopus laevis oocytes. The series is classed as functional, cell-based. On the set-up: scale not given: the % may be the effect or the level left. The conditions noted are these: oocyte.
Series [17] has the same target. The series can be described thus: TP_TRANSPORTER: inhibition of Ouabain uptake (Ouabain: 100 uM, BSP: 100 uM) in Xenopus laevis oocytes. The series is classed as functional, cell-based, Oocyte. More on the design: scale not given: the % may be the effect or the level left. Particulars: probe Ouabain (100 uM), read-out: Activity.
For series [18] the target is unchanged. The series can be described thus: TP_TRANSPORTER: inhibition of Ouabain uptake (Ouabain: 100 uM, Testosterone: 100 uM) in Xenopus laevis oocytes. Type of series: functional, cell-based, Oocyte. On the set-up: scale not given: the % may be the effect or the level left. The conditions noted are these: probe Ouabain (100 uM), read-out: Activity.
Substrate in series [19]: C[C@]12CCC(=O)C=C1CC[C@@H]1[C@@H]2[C@@H](O)C[C@@]2(C)[C@H]1CC[C@]2(O)C(=O)CO
The series is described as §1. Type of series: functional, cell-based, Oocyte.

Substrate in series [20]: C[C@]12CCC(=O)C=C1CC[C@@H]1[C@@H]2[C@@H](O)C[C@]2(C=O)[C@@H](C(=O)CO)CC[C@@H]12
The series is described as §1. Type of series: functional, cell-based, Oocyte.

Substrate in series [21]: C[C@]12CC[C@@H]3c4ccc(O)cc4CC[C@H]3[C@@H]1CC[C@@H]2O[C@@H]1O[C@H](C(=O)O)[C@@H](O)[C@H](O)[C@H]1O
Described as §1. The series is classed as functional, cell-based, Oocyte.

Substrate in series [22]: C[C@]12CC[C@@H]3c4ccc(OS(=O)(=O)O)cc4CC[C@H]3[C@@H]1CCC2=O
The series is described as §1. The series is classed as functional, cell-based, Oocyte.

In the case of `C[C@]12CC[C@@H]3c4ccc(O[C@@H]5O[C@H](C(=O)O)[C@@H](O)[C@H](O)[C@H]5O)cc4CC[C@H]3[C@@H]1CCC2=O`, in [1], the activity at 100 µM turned out to be 24%. For `C[C@]12CC[C@@H]3c4ccc(O[C@@H]5O[C@H](C(=O)O)[C@@H](O)[C@H](O)[C@H]5O)cc4CC[C@H]3[C@@H]1CC[C@@H]2O`, the activity at 100 µM in [2] is 27%.

On to `C[C@]12CCC(=O)C=C1CC[C@@H]1[C@@H]2[C@@H](O)C[C@]2(C=O)[C@@H](C(=O)CO)CC[C@@H]12` [ALDOSTERONE], for which the Activity in series [3] stood at 10%.

In [4], `C[C@]12C[C@H](O)[C@H]3[C@@H](CCC4=CC(=O)CC[C@@]43C)[C@@H]1CC[C@@H]2C(=O)CO` [CORTICOSTERONE] had an Activity of 15%.

On to `C[C@@H]1C[C@H]2[C@@H]3CCC4=CC(=O)C=C[C@]4(C)[C@@]3(F)[C@@H](O)C[C@]2(C)[C@@]1(O)C(=O)CO` [DEXAMETHASONE], for which, in series [5], the activity at 100 µM came to 26%. Also, the Activity entry in [6] (oocyte) is “substrate [+]”.

Turning to `C[C@H]1O[C@@H](O[C@H]2[C@@H](O)C[C@H](O[C@H]3[C@@H](O)C[C@H](O[C@H]4CC[C@@]5(C)[C@H](CC[C@@H]6[C@@H]5CC[C@]5(C)[C@@H](C7=CC(=O)OC7)CC[C@]65O)C4)O[C@@H]3C)O[C@@H]2C)C[C@H](O)[C@@H]1O` [DIGITOXIN], the activity at 100 µM in [7] turned out to be 29%. `C[C@]12CC[C@H](O)C[C@H]1CC[C@@H]1[C@@H]2C[C@@H](O)[C@]2(C)[C@@H](C3=CC(=O)OC3)CC[C@]12O` [DIGOXIGENIN]: the activity at 100 µM in [8] was 19%. On to `C[C@]12CC[C@@H]3c4ccc(O)cc4CC[C@H]3[C@@H]1CC[C@@H]2O[C@@H]1O[C@H](C(=O)O)[C@@H](O)[C@H](O)[C@H]1O` [ESTRADIOL 17B GLUCURONIDE], for which, in series [9], the activity at 100 µM was found to be 16%. Regarding `C[C@]12CC[C@@H]3c4ccc(O)cc4CC[C@H]3[C@@H]1CC[C@@H]2O` [ESTRADIOL], the activity at 100 µM in series [10] is 40%.

In series [11], `C[C@]12CC[C@@H]3c4ccc(OS(=O)(=O)O)cc4CC[C@H]3[C@@H]1CCC2=O` [ESTRONE SULFURIC ACID] had an Activity of 10%. As for `C[C@]12CCC(=O)C=C1CC[C@@H]1[C@@H]2[C@@H](O)C[C@@]2(C)[C@H]1CC[C@]2(O)C(=O)CO` [HYDROCORTISONE], the activity at 100 µM in series [12] came out at 19%.

In series [13], `CC1(C)C(/C=C/C=C/C=C/C=C2/N(CCCCS(=O)(=O)[O-])c3ccc4ccccc4c3C2(C)C)=[N+](CCCCS(=O)(=O)[O-])c2ccc3ccccc3c21.[Na+]` [INDOCYANINE GREEN] yielded an Activity of 6%. With `C[C@@H]1O[C@@H](O[C@H]2C[C@@H](O)[C@]3(CO)[C@H]4[C@H](O)C[C@]5(C)[C@@H](C6=CC(=O)OC6)CC[C@]5(O)[C@@H]4CC[C@]3(O)C2)[C@H](O)[C@H](O)[C@H]1O` [OUABAIN], in [6] (Xenopus laevis oocytes), the Km is 1700 µM.

`C[C@]12C=CC(=O)C=C1CC[C@@H]1[C@@H]2[C@@H](O)C[C@@]2(C)[C@H]1CC[C@]2(O)C(=O)CO` [PREDNISOLONE]: the activity at 100 µM in series [14] stood at 40%. The molecule `C[C@]12C=CC(=O)C=C1CC[C@@H]1[C@@H]2C(=O)C[C@@]2(C)[C@H]1CC[C@]2(O)C(=O)CO` [PREDNISONE] came in with an Activity in [15] of 34%.

Take `O=C([O-])c1c(Cl)c(Cl)c(Cl)c(Cl)c1-c1c2cc(I)c(=O)c(I)c-2oc2c(I)c([O-])c(I)cc12.[Na+].[Na+]` [ROSE BENGAL SODIUM]: in series [16], the Activity was found to be 4%. As to `O=C1OC(c2ccc(O)c(S(=O)(=O)O)c2)(c2ccc(O)c(S(=O)(=O)O)c2)c2c(Br)c(Br)c(Br)c(Br)c21` [SULFOBROMOPHTHALEIN SODIUM], the activity at 100 µM in series [17] worked out at 6%. Take `C[C@]12CC[C@H]3[C@@H](CCC4=CC(=O)CC[C@@]43C)[C@@H]1CC[C@@H]2O` [TESTOSTERONE]: the activity at 100 µM in series [18] is 16%.

B1: Solute carrier organic anion transporter family member 1A1 (Rattus norvegicus) (protein)
chain: T1 sequence (P46720 whole entry)
For B1, the Km in series [19] was found to be 13 µM; in series [20] it was 0.015 µM; in [21] it was 3 µM; in series [22] it was 4.5 µM.

These data come from ChEMBL document CHEMBL2074160, “Polyspecific drug and steroid clearance by an organic anion transporter of mammalian liver” (J Pharmacol Exp Ther, 1996).
